Among the data in ChEMBL document CHEMBL5465560, “Selectivity Literature for EUbOPEN Chemogenomic Library” (2024) are % of control, % of inhibition and % binding values, retold here.

The structures appear in SMILES notation.

For assay [1], the target named is T1, Tyrosine-protein kinase Tec (Homo sapiens) (UniProt P42680).
T1 sequence (whole entry): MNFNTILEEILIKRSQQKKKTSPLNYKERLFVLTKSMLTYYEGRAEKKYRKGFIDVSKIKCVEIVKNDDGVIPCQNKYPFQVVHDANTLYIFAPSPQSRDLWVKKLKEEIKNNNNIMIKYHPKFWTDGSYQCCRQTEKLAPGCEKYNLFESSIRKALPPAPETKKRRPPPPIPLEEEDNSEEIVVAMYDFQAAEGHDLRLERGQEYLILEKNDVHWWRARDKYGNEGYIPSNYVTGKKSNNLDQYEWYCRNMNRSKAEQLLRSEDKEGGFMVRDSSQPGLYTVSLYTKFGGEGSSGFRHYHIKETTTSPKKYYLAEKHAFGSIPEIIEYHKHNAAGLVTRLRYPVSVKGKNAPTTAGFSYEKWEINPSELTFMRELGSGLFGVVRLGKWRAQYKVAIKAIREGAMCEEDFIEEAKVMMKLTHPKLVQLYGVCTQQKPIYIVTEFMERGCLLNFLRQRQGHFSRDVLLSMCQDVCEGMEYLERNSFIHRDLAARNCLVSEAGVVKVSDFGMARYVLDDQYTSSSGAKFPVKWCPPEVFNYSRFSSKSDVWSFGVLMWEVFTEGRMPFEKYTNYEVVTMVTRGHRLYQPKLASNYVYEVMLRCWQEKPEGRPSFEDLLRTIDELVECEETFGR
Put plainly: Selectivity interaction (KinomeScan (DiscoverX)) EUB0001619a TEC. Particulars: at 1 µM.

The target in assay [2] is BMP-2-inducible protein kinase (Homo sapiens) (UniProt Q9NSY1). Particulars: at 10 µM.
BMP-2-inducible protein kinase (Homo sapiens), sequence (Q9NSY1 whole entry, looked up): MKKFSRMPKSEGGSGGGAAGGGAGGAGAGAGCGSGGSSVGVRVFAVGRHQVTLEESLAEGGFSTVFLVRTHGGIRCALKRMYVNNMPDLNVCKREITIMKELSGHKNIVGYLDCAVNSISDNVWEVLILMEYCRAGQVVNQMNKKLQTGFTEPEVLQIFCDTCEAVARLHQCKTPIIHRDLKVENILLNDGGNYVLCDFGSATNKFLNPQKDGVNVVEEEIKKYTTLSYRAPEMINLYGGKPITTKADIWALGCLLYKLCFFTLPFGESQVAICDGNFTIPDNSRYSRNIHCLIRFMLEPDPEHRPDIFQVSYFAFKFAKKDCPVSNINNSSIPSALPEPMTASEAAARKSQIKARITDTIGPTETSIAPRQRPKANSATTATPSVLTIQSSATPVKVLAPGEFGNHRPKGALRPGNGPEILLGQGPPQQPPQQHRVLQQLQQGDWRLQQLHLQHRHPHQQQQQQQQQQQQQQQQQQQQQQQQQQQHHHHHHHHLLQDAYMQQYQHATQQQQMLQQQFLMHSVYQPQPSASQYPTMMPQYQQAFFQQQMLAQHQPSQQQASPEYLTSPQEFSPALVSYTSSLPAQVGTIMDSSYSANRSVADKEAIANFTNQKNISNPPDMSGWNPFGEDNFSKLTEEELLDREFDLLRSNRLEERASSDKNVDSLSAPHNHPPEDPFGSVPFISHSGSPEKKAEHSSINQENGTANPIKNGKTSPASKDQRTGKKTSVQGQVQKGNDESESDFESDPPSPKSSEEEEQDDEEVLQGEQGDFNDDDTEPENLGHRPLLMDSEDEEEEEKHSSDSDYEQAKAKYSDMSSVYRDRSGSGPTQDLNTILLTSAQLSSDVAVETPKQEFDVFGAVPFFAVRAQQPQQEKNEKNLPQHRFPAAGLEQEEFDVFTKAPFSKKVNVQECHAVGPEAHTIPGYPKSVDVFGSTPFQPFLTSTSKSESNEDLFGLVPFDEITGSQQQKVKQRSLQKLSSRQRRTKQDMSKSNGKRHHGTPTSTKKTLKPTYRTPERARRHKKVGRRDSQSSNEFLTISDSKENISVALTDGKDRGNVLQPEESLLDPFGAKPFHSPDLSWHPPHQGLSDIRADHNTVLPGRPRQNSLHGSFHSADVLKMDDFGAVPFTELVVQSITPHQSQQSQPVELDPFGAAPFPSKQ
Assay [3] concerns the target T2, Serine/threonine-protein kinase D2 (Homo sapiens) (UniProt Q9BZL6).
T2 sequence (whole entry): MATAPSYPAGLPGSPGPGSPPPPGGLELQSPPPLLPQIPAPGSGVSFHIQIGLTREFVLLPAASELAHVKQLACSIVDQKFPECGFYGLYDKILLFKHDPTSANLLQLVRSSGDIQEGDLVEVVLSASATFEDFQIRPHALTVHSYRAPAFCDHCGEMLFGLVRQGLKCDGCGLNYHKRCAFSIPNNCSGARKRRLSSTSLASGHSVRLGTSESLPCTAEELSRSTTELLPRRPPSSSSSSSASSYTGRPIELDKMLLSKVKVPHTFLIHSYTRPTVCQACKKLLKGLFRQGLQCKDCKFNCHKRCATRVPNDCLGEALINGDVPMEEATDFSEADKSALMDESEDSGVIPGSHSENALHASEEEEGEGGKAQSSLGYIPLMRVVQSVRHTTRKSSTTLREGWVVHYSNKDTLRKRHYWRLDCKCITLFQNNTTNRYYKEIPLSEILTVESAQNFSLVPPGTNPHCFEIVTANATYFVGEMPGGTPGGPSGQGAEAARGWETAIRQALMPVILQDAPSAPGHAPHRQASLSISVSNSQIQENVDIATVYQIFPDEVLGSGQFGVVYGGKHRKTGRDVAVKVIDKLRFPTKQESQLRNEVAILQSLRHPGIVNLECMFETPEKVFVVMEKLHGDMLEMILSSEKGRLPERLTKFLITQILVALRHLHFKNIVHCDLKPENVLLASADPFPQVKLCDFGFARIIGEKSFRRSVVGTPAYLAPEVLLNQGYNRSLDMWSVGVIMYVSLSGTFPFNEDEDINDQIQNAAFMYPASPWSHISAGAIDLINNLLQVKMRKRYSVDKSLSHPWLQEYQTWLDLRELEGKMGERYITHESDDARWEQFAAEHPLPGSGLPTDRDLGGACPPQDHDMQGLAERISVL
The assay can be described thus: Selectivity interaction (ActivX KiNativ screen (kinase selectivity in THP-1 cell lysates)) EUB0000639a PRKD2. Particulars: lysate. The assay is classed as subcellular.

Assay [4] has as its target Serine/threonine-protein kinase tousled-like 2 (Homo sapiens) (UniProt Q86UE8). The assay can be described thus: Selectivity interaction (ActivX KiNativ screen (kinase selectivity in THP-1 cell lysates)) EUB0000639a TLK2. Particulars: lysate, at 5 µM. The class given is subcellular.
For assay [5], the target named is Casein kinase II subunit alpha' (Homo sapiens) (UniProt P19784). Put plainly: Selectivity interaction (KinomeScan (DiscoverX)) EUB0001079a CSNK2A2. Particulars: at 1 µM.
Casein kinase II subunit alpha' (Homo sapiens), sequence (P19784 whole entry, looked up): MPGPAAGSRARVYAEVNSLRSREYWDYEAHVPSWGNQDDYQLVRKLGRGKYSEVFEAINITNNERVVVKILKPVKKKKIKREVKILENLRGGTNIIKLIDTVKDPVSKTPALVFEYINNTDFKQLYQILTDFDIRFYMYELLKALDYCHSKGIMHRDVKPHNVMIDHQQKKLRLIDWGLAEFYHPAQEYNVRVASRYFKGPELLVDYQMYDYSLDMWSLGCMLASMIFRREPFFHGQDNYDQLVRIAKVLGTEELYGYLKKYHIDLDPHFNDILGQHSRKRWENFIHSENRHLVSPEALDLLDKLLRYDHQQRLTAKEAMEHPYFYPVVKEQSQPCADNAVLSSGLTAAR
Assay [6] deals with T3, Serine/threonine-protein kinase 3 (Homo sapiens) (UniProt Q13188).
T3 sequence (whole entry): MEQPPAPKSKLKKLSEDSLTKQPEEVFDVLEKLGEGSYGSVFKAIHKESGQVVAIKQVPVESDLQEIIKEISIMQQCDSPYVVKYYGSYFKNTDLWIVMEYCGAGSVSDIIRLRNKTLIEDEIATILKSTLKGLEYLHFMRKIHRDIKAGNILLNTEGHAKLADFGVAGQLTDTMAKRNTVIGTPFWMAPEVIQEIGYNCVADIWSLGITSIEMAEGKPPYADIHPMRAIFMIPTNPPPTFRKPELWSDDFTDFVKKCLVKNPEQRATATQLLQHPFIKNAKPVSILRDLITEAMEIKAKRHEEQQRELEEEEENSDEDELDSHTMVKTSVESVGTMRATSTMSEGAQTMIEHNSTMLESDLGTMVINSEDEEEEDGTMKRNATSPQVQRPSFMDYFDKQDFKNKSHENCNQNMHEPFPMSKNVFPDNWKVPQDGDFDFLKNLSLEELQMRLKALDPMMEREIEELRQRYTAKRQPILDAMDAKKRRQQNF
The assay can be described thus: Selectivity interaction (KinomeScan (DiscoverX)) EUB0000229b STK3. Particulars: at 10 µM.

Serine/threonine-protein kinase tousled-like 2 (Homo sapiens), sequence (Q86UE8 whole entry, looked up): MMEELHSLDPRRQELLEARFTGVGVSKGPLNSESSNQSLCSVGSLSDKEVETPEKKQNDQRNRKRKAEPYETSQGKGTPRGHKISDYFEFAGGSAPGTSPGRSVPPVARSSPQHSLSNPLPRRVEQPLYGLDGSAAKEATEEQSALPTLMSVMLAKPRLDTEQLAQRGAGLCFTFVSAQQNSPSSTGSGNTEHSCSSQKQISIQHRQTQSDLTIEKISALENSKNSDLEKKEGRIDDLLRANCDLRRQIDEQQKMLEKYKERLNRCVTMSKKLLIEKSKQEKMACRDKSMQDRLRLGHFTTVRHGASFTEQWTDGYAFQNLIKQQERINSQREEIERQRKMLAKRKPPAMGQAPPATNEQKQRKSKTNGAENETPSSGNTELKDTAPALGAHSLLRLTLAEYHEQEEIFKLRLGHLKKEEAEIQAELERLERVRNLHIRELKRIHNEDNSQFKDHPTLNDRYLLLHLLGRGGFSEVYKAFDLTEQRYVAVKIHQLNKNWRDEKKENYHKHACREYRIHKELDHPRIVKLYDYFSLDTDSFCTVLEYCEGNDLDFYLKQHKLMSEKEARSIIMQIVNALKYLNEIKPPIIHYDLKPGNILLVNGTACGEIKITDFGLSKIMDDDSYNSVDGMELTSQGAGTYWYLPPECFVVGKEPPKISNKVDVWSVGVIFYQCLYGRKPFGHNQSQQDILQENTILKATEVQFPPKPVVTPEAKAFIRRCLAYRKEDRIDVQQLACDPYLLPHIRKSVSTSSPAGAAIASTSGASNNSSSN

`N#Cc1cccc(-c2c[nH]c3ncnc(N4CCOCC4)c23)c1` returned a % of control in assay [1] of 100%.

Regarding `CCN(CC)CCCCNc1ncc2cc(-c3cc(OC)cc(OC)c3)c(NC(=O)NC(C)(C)C)nc2n1`, the % of control in assay [2] came out at 100%.

As for `CC[C@@H]1[C@H](F)C(=O)N[C@@H]1COc1nccc2cc(C(N)=O)c(OC)cc12` [ZIMLOVISERTIB], the % of inhibition in assay [3] (at 0.01 µM) was determined as 1.1%; in assay [3] (at 0.04 µM), 12.3%; in assay [3] (at 0.2 µM), 6.8%; in assay [3] (at 1 µM), 11.9%; in assay [3] (at 5 µM) it was 5.6%; in assay [4], 80.5%.

On to `Nc1cnc(N2CCc3cc(S(=O)(=O)Nc4c(F)cc(Cl)cc4F)cc(N4CCCC4=O)c32)nc1` [TP-020n], for which, in assay [5], the % of control was 98%.

Turning to `COc1cc(N(C)c2ccnc3ccc(C(F)(F)F)cc23)cc(OC)c1OC`, the % binding in assay [6] worked out at 93%.
